Measured values: patent publication US8969296B2, “TGFP-CAP peptide and its uses” (Caregen Co., Ltd, priority 2007, dated 2015)
Where a SMILES comes first, the peptide text is derived from it.

Legend:
[1] = test system: B16F10 cells; assay: Melanosome formation under ERK inhibition by PD98059 (microscopy); assay type: cell-based; conditions: 10 μM PD98059; with 1 ng/ml transforming growth factor or 30 μg/ml tridecapeptide; 4 days
Experimental: To reveal skin whitening effects of the tridecapeptide synthesized in Example 1 and transforming growth factor, the activation of ERK was inhibited with PD98059 (Sigma) and then its inhibitory influence was evaluated after peptide treatment. B16F10 cells were seeded in 6-well culture dishes in a density of 1×10^5 cells/well and cultured in DMEM for 3 days at 37° C. under 5% CO2 conditions. After cell adhesion was observed, medium was changed with a fresh medium containing 2% serum. The negative control was not subject to any treatment. Cells plated in other two culture dishes were incubated with either 1 ng/ml transforming growth factor or 30 μg/ml tridecapeptide. In addition, cells cultured in other three dishes as a positive control were incubated with 10 μM PD98059 to inhibit ERK phosphorylation. Among them, cells contained in two dishes were incubated for 4 days with either 1 ng/ml transforming growth factor or 30 μg/ml tridecapeptide after 1-hr PD98059 treatment and their morphology was observed under microscopes.

[2] = test system: ERK 1/2; assay: Western blotting of Phospho ERK 1/2 in melanoma cells; assay type: cell-based; conditions: 10 μM PD98059; with 10 ng/ml TGF-β1 or 30 μg/ml tridecapeptide
Experimental: Furthermore, to clearly verify the influence of TGF-β1 and tridecapeptide on signaling events, melanoma cells were cultured as described above and then incubated simultaneously with 10 μM PD98059 and 30 μg/ml tridecapeptide. Proteins from cell extracts were prepared and developed on SDS-PAGE, followed by electro-transferring to PVDF (polyvinylidene difluoride) membrane (GE Health Care). Afterwards, the PVDF membrane was incubated with Phospho ERK 1/2 antibodies (1/3000 diluted, Cell Signaling, USA) for 4 hr at room temperature. The PVDF membrane was washed with a washing buffer and incubated with HRP-conjugated anti-mouse IgG antibodies (1/5000 diluted, SantaCruz, USA). Then, it was washed twice with a washing buffer and incubated with ECL (enhanced chemilumineseance) solution (GE Health Care) (FIG. 6). In FIG. 6, among PD98059 treatment groups, the symbol “Con” is a group incubated with only 10 μM PD98059 and “TGFb1” is a group incubated with both 10 μM PD98059 and 10 ng/ml TGF-β1.

[3] = test system: TRP-1 (tyrosinase related protein-1) and TRP-2; assay: Levels of TRP-1 and TRP-2 in melanoma cells (Western blotting); assay type: cell-based; conditions: 10 μM PD98059; with 10 ng/ml TGF-β1 or 30 μg/ml tridecapeptide
[4] = test system: HaCaT; assay: Cytotoxicity test, SRB colorimetric assay, keratinocytes; assay type: cell-based; conditions: 500 pg/ml-200 μg/ml, 72 hr
Experimental: (§1) To verify cytotoxicity of peptides of this invention on keratinocytes, fibroblasts and melanoma cells, SRB (Sulforhodamine B) colorimetric assay was carried out using HaCaT, NIH3T3 and B16F10 cells according to Rizzino et al method (Rizzino, et al. Cancer Res., 48:4266 (1988)). HaCaT, NIH3T3 or B16F10 cells (Korean Cell Line Bank) were cultured in 250 ml-flasks containing EMEM (Eagle's minimal essential media, Gibco, U.S.A.) supplemented with […] (fetal bovine serum). Cells cultured were treated with 0.25% trypsin solution to detach cells from the bottom of culture flasks and centrifuged to collect cell pellets. Cells were resuspended in EMEM not containing FBS, its aliquot (1×10^5) cells was added to each well of 96-well plates and cultured under 7% CO2 for 24 hr at 37° C. After 24-hr culture, the medium was changed with a fresh medium not containing serum and cells were incubated with the tridecapeptide (500 pg/ml, 10 ng/ml, 1 μg/ml, 100 μg/ml and 200 μg/ml) dissolved in 10% DMSO for 72 hr under the same conditions as described above. After removing supernatants, cells were washed once using PBS and incubated with SRB solution (Sigma). Cells were washed with PBS and observed under a microscope to find cell viability. In addition, absorbance at 590 nm was measured to analyze cell proliferation.

[5] = test system: B16F10; assay: Cytotoxicity test, SRB colorimetric assay, melanoma cells; assay type: cell-based; conditions: 500 pg/ml-200 μg/ml, 72 hr
Experimental: as §1

[6] = test system: NIH3T3; assay: Cytotoxicity test, SRB colorimetric assay, fibroblasts; assay type: cell-based; conditions: 500 pg/ml-200 μg/ml, 72 hr
Experimental: as §1

[7] = test system: tyrosinase; assay: Tyrosinase activity in extracts of treated B16F10 cells (L-DOPA, absorbance 405 nm); assay type: cell-based; conditions: α-MSH 200 ng/ml, TGFβ-1 10 ng/ml or peptide 10 ng/ml-30 μg/ml, 4 days
Experimental: The tridecapeptide synthesized in Example 1 was analyzed to decrease levels of melanin pigment. B16F10 cells (Korean Cell Line Bank) were plated in a density of 1×10^5 cells/well and cultured in DMEM (Sigma) for 3 days at 37° C. under 5% CO2 conditions. After cell adhesion was observed, medium was changed with a fresh medium containing 2% serum. Cells were incubated with tested materials in determined concentrations for 4 days at 37° C. under 5% CO2 conditions. The tested materials were prepared in such a manner that components indicated in Table 6 were dissolved in medium and diluted with a mixed solvent of propylene glycol:ethanol:distilled water (5:3:2).
Afterwards, cells were harvested and treated with a lysis buffer containing sodiumdodecylsulfate (Sigma) and Triton X-100 (Sigma) to extract intracellular proteins. The extracted proteins were quantitated by the BCA method. For each experiment group, 90 μl of protein solution and 10 μl of L-DOPA (Sigma) were added and reacted for 30 min. The resultants were analyzed to measure their absorbance values at 405 nm for evaluating tyrosinase activities.

[8] = test system: NIH-3T3 cells; assay: Stability analysis: remaining activity of solutions stored at 37° C., by MTT assay; assay type: physicochemical; conditions: 50 mM Tris-HCl (pH 8.0), days 0-100, tridecapeptide 10 μg/ml, TGF-β1 1 μg/ml
Experimental: To evaluate stability of the purified tridecapeptide, NH2-Ile-Trp-Ser-Leu-Asp-Thr-Gln-Tyr-Gly-Gly-Arg-Gly-Asp-OH, it was dissolved in 50 mM Tris-HCl (pH 8.0) to a concentration of 10 μg/ml. A recombinant TGF-β1 (Sigma) produced by E. coli was prepared as a control in the same buffer to a concentration of 1 μg/ml. The prepared solutions were introduced into glass vials and kept to stand at 37° C. Afterwards, the solutions were taken on days 0, 1, 10, 25, 50, 75 and 100 and subjected to a MTT assay (Scudiero, D. A., et al. Cancer Res. 48:4827-4833 (1988)) using NIH-3T3 cells (Korean Cell Line Bank) for determining their remaining activity (FIG. 2). The results were given as relative values to the activity (100%) of sample taken on day 0.

[9] = test system: Mice melanocytes; assay: Inhibition of melanin generation induced by α-MSH (Dooley method); assay type: cell-based; conditions: α-MSH 200 ng/ml; peptide 10 ng/ml-30 μg/ml; 3 days; absorbance 400 nm
Experimental: The tridecapeptide synthesized in Example 1 was analyzed to decrease levels of melanin pigment. Mice melanocytes cultured were incubated with α-MSH (melanocyte stimulating hormone/Sigma) and then with the tridecapeptide in the determined concentrations to measure inhibition effects on melanin generation. Mice melanocytes were originated from C57BL/6 mice and cultured in DMEM (Dulbecco's modified Eagle's media) containing 10% fetal bovine serum at 37° C. under 5% CO2 conditions. Cells were cultured in a density of 1×10^5 cells/well and their adhesion to culture plates was observed. Then, cells were incubated with materials to be tested for 3 days. The tested materials were prepared in such a manner that components indicated in Table 5 were dissolved in medium and diluted with a mixed solvent of propylene glycol:ethanol:distilled water (5:3:2). Following removal of medium, cells were washed with PBS and treated with 1 N sodium hydroxide. The resultants were analyzed to measure their absorbance values at 400 nm.

## COc1cccc(-c2cc(=O)c3ccccc3o2)c1N [PD98059, reference compound]
[1]
  melanosome number: a large number of darkish pigments by induced melanosomes
[2]
  levels of Phospho ERK 1 and ERK 2: greatly decrease levels of Phoshpo ERK 1 and ERK 2
[3]
  levels of TRP-1 and TRP-2: increased

## CC[C@H](C)[C@H](N)C(=O)N[C@@H](Cc1c[nH]c2ccccc12)C(=O)N[C@@H](CO)C(=O)N[C@@H](CC(C)C)C(=O)N[C@@H](CC(=O)O)C(=O)N[C@H](C(=O)N[C@@H](CCC(N)=O)C(=O)N[C@@H](Cc1ccc(O)cc1)C(=O)NCC(=O)NCC(=O)N[C@@H](CCCNC(=N)N)C(=O)NCC(=O)N[C@@H](CC(=O)O)C(=O)O)[C@@H](C)O [tridecapeptide, NH2-Ile-Trp-Ser-Leu-Asp-Thr-Gln-Tyr-Gly-Gly-Arg-Gly-Asp-OH] (H-IWSLDTQYGGRGD-OH)
[4]
  cell number (cytotoxicity): the decrease in cell number was not shown
[5]
  cell number (cytotoxicity): the decrease in cell number was not shown
[6]
  cell number (cytotoxicity): the decrease in cell number was not shown

## TGF-β1: recombinant TGF-β1 (Sigma) produced by E. coli, used as control
[1]
  melanosome number: significantly reduced melanosome number
[7]
  tyrosinase activity: relatively reduced tyrosinase activity in a dose dependent manner
[2]
  levels of Phospho ERK 1 and ERK 2: elevated levels of Phoshpo ERK 1 and ERK 2
[3]
  levels of TRP-1 and TRP-2: decreased
[8]
  remaining activity over time (relative to day 0 = 100%): sharply decreased with the lapse of time

## α-MSH: melanocyte stimulating hormone/Sigma, used to induce melanin generation (Ac-SYSMEHFRWGKPV-NH2; ends and bridges not checked; UniProt P01189 138-150, looked up) [reference compound]
[9]
  melanin generation / melanin content: highly elevated level of melanin production
[7]
  tyrosinase activity: highly elevated level of tyrosinase activity
